Among the data in ChEMBL document CHEMBL1146188, “Gram-scale synthesis of pinusolide and evaluation of its antileukemic potential” (2006) are Activity values, retold here.

The subject of test [1] is BJAB. Description: Antiproliferative activity against human BJAB cells after 24 hrs. It counts as functional.
Test [2] concerns BJAB. Description: Antiproliferative activity against human BJAB cells after 48 hrs. Type of test: functional.
Test [3] relates to BJAB. Description: Induction of apoptosis of human BJAB cells as measured by DNA fragmentation at 100 uM after 72 hrs. Type of test: functional.
Test [4] deals with BJAB. Put plainly: Loss of mitochondrial membrane potential in human BJAB cells at 100 uM. It counts as functional, cell-based.
For test [5], the system named is BJAB. Put plainly: Induction of mitochondrial permeability transition in human BJAB cells after 48 hrs. Type of test: functional, cell-based.
In test [6] the test system is Leukemia cell. Put plainly: Induction of apoptosis in ALL cells at 100 uM after 60 hrs. It counts as functional, cell-based. The settings on record: Homo sapiens.
Test [7] relates to Leukemia cell. Put plainly: Induction of apoptosis in AML cells at 100 uM after 60 hrs. Type of test: functional, cell-based. Conditions: Homo sapiens.

Calls of active or inactive are those of the source. The rule behind the calls is not given here.

As for `C=C1CC[C@@H]2[C@](C)(CCC[C@]2(C)C(=O)OC)[C@H]1CCC1=CCOC1=O` [PINUSOLIDE], the Activity in the test on BJAB [1] was 44%; in the test on BJAB [2], 86%; in the test on BJAB [3], 70%; in the test on BJAB [5], “Dose-dependent effect”. Also, the result in the test with BJAB [4], in the test on Leukemia cell [6] and with Leukemia cell [7] was Active.
